The values below come from ChEMBL document CHEMBL3751848, “Receptor binding profiles and quantitative structure-affinity relationships of some 5-substituted-N,N-diallyltryptamines” (Bioorg Med Chem Lett, 2016).

The target of assay [1] is T1, Alpha-1A adrenergic receptor (Homo sapiens, UniProt P35348).
T1 sequence (P35348 whole entry): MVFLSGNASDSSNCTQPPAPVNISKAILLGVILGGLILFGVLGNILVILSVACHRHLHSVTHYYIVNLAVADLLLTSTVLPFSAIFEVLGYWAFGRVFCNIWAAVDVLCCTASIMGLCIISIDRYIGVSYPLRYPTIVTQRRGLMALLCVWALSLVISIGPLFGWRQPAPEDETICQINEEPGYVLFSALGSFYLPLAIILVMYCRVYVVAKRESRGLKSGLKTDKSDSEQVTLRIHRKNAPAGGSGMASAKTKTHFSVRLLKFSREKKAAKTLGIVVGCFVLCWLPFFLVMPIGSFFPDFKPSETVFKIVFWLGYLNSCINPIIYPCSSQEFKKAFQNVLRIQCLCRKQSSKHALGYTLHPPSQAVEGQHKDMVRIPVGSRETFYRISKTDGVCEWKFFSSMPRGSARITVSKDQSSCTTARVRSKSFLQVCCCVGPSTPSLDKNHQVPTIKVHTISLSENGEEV
The assay can be described thus: Binding affinity to alpha-1A adrenergic receptor (unknown origin) by competition binding assay.

The target of assay [2] is T2, Alpha-2A adrenergic receptor (Homo sapiens, UniProt P08913).
T2 sequence (P08913 whole entry): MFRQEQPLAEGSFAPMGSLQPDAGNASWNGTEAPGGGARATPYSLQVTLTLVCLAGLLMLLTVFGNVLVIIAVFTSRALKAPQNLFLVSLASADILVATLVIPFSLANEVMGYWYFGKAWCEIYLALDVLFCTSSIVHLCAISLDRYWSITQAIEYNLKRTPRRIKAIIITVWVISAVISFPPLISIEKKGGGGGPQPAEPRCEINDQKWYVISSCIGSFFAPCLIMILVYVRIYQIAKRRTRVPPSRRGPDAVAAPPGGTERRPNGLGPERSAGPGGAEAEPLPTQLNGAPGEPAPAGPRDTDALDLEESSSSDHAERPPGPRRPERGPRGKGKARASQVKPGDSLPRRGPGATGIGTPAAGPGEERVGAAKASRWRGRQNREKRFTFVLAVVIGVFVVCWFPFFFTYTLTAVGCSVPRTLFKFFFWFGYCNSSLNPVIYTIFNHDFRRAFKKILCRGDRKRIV
The assay can be described thus: Binding affinity to alpha-2A adrenergic receptor (unknown origin) by competition binding assay.

The target in assay [3] is 5-hydroxytryptamine receptor 6 (Homo sapiens, UniProt P50406). Put plainly: Binding affinity to 5-HT 6 (unknown origin) by competition binding assay.
Assay [4] has as its target Sodium-dependent serotonin transporter (Homo sapiens, UniProt P31645). Put plainly: Binding affinity to SERT (unknown origin) by competition binding assay.
Assay [5] addresses Sodium-dependent noradrenaline transporter (Homo sapiens, UniProt P23975). The assay can be described thus: Binding affinity to NET (unknown origin) by competition binding assay.
For assay [6], the target named is D(3) dopamine receptor (Homo sapiens, UniProt P35462). Put plainly: Binding affinity to D3 dopamine receptor (unknown origin) by competition binding assay.
Assay [7] has as its target 5-hydroxytryptamine receptor 2A (Homo sapiens, UniProt P28223). Put plainly: Binding affinity to 5-HT 2A (unknown origin) by competition binding assay.
Assay [8] deals with Sigma non-opioid intracellular receptor 1 (Homo sapiens, UniProt Q99720). The assay can be described thus: Binding affinity to sigma 1 receptor (unknown origin) by competition binding assay.
The target of assay [9] is D(2) dopamine receptor (Homo sapiens, UniProt P14416). The assay can be described thus: Binding affinity to D2 dopamine receptor (unknown origin) by competition binding assay.
The target in assay [10] is 5-hydroxytryptamine receptor 7 (Homo sapiens, UniProt P34969). The assay can be described thus: Binding affinity to 5-HT 7 (unknown origin) by competition binding assay.
Assay [11] concerns the target T3, Alpha-2C adrenergic receptor (Homo sapiens, UniProt P18825).
T3 sequence (P18825 whole entry): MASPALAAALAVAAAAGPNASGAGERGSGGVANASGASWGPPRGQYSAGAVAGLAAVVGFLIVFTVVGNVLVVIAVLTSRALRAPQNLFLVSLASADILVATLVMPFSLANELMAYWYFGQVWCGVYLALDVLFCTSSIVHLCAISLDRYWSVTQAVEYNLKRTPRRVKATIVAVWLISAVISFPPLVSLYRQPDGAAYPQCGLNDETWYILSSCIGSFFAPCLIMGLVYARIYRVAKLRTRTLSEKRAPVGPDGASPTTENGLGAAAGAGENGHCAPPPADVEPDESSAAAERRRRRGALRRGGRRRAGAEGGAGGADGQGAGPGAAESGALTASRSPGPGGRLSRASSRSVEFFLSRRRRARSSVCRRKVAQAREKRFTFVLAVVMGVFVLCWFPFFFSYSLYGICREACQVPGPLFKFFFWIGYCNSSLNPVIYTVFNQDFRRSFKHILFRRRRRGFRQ
Put plainly: Binding affinity to alpha-2C adrenergic receptor (unknown origin) by competition binding assay.

The target of assay [12] is Sodium-dependent dopamine transporter (Homo sapiens, UniProt Q01959). The assay can be described thus: Binding affinity to DAT (unknown origin) by competition binding assay.
Assay [13] has as its target T4, Alpha-1D adrenergic receptor (Homo sapiens, UniProt P25100).
T4 sequence (P25100 whole entry): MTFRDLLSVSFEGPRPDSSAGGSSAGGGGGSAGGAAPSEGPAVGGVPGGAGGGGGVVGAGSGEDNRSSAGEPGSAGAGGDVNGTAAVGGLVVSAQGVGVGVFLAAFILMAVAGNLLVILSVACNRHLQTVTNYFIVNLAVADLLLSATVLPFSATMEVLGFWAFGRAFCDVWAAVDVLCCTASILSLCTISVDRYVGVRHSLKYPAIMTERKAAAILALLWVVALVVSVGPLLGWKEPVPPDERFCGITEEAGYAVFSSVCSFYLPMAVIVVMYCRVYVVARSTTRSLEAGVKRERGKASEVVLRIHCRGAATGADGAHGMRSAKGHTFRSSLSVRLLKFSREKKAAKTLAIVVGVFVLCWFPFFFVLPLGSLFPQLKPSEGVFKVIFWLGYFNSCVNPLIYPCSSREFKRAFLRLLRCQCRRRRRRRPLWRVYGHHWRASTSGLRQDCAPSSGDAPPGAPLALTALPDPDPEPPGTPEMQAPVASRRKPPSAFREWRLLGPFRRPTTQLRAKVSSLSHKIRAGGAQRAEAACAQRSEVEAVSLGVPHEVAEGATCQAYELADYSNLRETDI
Put plainly: Binding affinity to alpha-1D adrenergic receptor (unknown origin) by competition binding assay.

The target of assay [14] is 5-hydroxytryptamine receptor 5A (Homo sapiens, UniProt P47898). The assay can be described thus: Binding affinity to 5-HT 5A (unknown origin) by competition binding assay.
For assay [15], the target named is 5-hydroxytryptamine receptor 1B (Homo sapiens, UniProt P28222). Put plainly: Binding affinity to 5-HT 1B (unknown origin) by competition binding assay.
5-hydroxytryptamine receptor 1B, sequence (P28222 whole entry): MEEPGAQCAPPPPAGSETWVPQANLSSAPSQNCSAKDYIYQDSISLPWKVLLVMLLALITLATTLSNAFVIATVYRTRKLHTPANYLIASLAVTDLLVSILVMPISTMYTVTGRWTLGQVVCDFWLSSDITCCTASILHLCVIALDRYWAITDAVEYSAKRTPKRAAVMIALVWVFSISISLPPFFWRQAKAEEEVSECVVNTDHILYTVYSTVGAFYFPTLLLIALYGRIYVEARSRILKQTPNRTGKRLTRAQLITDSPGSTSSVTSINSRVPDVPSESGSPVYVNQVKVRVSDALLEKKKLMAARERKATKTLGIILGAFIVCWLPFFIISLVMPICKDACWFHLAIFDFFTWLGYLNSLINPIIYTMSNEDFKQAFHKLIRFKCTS

5-hydroxytryptamine receptor 2A, sequence (P28223 whole entry): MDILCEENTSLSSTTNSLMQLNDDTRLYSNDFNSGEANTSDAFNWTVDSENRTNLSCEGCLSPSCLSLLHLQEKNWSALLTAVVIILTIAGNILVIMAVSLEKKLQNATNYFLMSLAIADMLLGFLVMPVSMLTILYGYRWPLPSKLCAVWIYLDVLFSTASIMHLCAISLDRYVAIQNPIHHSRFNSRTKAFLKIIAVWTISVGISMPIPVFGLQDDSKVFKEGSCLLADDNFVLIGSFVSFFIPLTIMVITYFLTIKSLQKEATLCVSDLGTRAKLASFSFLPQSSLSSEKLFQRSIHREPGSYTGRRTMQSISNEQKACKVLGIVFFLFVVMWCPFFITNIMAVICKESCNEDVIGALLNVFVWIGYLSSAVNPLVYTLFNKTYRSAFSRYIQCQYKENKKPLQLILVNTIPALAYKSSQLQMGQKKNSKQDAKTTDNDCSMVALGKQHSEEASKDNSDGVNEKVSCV
5-hydroxytryptamine receptor 6, sequence (P50406 whole entry): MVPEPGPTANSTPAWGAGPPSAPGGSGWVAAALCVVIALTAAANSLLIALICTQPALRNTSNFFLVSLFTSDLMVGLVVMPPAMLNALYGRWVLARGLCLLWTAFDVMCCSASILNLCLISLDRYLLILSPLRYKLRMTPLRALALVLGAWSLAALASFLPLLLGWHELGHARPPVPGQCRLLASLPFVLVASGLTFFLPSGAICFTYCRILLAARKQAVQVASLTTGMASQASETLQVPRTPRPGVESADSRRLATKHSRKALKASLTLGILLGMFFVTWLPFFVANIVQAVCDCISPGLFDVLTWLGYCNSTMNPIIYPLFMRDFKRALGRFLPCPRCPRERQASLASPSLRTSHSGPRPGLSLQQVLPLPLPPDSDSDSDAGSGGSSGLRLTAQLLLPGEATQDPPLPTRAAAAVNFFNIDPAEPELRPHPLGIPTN
Sigma non-opioid intracellular receptor 1, sequence (Q99720 whole entry): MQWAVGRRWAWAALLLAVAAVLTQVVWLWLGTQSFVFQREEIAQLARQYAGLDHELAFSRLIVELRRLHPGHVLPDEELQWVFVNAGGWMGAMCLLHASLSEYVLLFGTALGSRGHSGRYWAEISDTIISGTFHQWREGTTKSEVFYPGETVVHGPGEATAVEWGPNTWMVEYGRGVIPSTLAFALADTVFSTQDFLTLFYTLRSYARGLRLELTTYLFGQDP
5-hydroxytryptamine receptor 7, sequence (P34969 whole entry): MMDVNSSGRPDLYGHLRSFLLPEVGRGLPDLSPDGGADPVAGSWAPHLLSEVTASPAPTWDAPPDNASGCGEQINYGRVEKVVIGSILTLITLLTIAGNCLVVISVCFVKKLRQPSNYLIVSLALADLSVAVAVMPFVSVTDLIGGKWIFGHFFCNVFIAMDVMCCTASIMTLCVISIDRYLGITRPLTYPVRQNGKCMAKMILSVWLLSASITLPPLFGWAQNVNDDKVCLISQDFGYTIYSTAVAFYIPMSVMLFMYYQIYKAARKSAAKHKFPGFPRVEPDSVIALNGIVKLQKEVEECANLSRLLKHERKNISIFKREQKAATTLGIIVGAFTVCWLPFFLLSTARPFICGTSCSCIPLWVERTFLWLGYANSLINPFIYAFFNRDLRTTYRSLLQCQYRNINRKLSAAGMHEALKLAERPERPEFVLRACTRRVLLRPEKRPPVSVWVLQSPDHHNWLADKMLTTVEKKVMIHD
Sodium-dependent dopamine transporter, sequence (Q01959 whole entry): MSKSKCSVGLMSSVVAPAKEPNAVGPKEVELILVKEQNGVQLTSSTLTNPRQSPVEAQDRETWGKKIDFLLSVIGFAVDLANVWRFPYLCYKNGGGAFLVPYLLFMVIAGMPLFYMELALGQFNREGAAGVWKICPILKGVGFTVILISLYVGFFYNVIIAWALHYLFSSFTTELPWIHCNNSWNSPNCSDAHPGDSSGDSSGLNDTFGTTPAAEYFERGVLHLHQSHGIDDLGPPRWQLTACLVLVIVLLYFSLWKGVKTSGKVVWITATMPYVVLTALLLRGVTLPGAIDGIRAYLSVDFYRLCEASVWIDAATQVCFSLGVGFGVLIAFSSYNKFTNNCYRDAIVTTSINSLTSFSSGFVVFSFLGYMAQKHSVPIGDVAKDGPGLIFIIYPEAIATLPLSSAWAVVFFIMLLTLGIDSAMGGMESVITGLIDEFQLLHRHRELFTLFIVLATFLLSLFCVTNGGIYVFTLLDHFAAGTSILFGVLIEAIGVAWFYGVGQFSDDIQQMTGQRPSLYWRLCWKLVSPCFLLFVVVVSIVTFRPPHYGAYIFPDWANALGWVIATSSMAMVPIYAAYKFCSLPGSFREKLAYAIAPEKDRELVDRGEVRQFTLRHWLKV
Sodium-dependent serotonin transporter, sequence (P31645 whole entry): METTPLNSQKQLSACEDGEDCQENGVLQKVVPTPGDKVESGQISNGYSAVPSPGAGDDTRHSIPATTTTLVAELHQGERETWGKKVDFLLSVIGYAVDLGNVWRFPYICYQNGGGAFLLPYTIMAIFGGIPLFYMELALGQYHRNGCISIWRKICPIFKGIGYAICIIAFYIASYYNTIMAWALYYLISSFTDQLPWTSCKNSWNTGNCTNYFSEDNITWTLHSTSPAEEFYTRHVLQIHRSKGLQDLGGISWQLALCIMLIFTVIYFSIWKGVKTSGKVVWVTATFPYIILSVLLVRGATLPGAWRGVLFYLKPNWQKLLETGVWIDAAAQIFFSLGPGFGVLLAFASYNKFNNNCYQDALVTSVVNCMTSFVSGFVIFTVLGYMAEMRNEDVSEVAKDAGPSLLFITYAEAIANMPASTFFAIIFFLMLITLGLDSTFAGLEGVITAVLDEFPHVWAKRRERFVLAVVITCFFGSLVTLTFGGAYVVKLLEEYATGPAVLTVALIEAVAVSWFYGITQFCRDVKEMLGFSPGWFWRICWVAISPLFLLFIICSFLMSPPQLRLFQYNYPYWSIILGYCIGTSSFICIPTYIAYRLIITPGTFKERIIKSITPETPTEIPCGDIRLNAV
5-hydroxytryptamine receptor 5A, sequence (P47898 whole entry): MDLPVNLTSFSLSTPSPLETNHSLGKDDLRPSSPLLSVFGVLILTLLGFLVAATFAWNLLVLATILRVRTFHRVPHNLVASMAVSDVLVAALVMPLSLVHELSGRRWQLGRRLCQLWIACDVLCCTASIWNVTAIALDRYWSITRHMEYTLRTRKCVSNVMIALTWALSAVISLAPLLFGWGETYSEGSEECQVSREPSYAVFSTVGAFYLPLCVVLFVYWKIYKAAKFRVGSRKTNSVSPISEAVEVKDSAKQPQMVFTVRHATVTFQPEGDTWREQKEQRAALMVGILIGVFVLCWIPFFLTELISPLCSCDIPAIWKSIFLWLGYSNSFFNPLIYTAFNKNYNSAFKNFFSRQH
D(3) dopamine receptor, sequence (P35462 whole entry): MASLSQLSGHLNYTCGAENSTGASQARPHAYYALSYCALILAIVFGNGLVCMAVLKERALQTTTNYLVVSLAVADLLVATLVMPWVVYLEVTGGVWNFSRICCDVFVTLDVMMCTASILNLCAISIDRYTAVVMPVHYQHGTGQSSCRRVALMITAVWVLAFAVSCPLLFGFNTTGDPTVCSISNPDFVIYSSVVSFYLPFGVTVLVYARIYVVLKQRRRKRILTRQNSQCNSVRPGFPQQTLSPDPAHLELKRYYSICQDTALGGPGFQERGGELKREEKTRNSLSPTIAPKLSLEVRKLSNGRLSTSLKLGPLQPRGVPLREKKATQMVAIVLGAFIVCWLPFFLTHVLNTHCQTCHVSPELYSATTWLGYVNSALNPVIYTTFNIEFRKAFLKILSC
Sodium-dependent noradrenaline transporter, sequence (P23975 whole entry): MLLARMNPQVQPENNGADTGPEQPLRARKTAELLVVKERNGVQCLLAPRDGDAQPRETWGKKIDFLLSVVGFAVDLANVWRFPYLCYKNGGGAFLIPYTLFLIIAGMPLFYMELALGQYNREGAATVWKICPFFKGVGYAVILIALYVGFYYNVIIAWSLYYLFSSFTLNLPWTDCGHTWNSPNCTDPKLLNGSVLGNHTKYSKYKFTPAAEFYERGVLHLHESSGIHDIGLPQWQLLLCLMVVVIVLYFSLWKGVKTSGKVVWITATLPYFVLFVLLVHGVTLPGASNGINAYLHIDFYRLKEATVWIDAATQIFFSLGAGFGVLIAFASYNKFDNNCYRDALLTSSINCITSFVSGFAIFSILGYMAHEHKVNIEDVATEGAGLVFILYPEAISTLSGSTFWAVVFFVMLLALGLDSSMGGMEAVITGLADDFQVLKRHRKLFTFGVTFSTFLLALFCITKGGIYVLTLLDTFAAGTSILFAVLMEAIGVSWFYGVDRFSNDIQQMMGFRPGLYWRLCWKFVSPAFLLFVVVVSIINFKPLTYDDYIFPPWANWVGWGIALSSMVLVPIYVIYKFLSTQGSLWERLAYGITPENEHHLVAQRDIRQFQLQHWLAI

For `C=CCN(CC=C)CCc1c[nH]c2ccccc12`, the Ki was 1.66 µM in [1]; less than 10 µM in assay [2] (read-out: Ki); 0.123 µM in assay [2] (read-out: pKi (converted)); less than 10 µM in assay [3] (read-out: Ki); 1.74 µM in [3] (read-out: pKi (converted)); 0.151 µM in assay [4]. Also, the Ki in [5] was 1 µM; in assay [6] it was 0.676 µM; in [7] (read-out: Ki), less than 10 µM; in assay [7] (read-out: pKi (converted)), 0.708 µM; in [8] (read-out: Ki) it was less than 10 µM; in assay [8] (read-out: pKi (converted)) it was 0.1 µM. Besides, the Ki in assay [11] (read-out: Ki) is less than 10 µM; in assay [11] (read-out: pKi (converted)), 0.891 µM; in [12] it was 1.26 µM; in assay [13] it was less than 10 µM. Moreover, the pKi in assay [9], in assay [10], in [14] and in assay [15] was greater than 5 in each case.

Consider `C=CCN(CC=C)CCc1c[nH]c2ccc(C)cc12`, for which the Ki was 1.26 µM in assay [1]; less than 10 µM in assay [2] (read-out: Ki); 0.195 µM in assay [2] (read-out: pKi (converted)); less than 10 µM in assay [3] (read-out: Ki); 0.741 µM in assay [3] (read-out: pKi (converted)); 0.363 µM in assay [4]. Besides, the Ki in [6] was 0.692 µM; in [7] (read-out: Ki), less than 10 µM; in [7] (read-out: pKi (converted)), 0.724 µM; in assay [8] (read-out: Ki), less than 10 µM; in [8] (read-out: pKi (converted)), 0.0741 µM; in assay [9] it was 5.13 µM. Moreover, the Ki is 0.155 µM in assay [10]; less than 10 µM in assay [11] (read-out: Ki); 1.1 µM in [11] (read-out: pKi (converted)); 3.16 µM in [12]; less than 10 µM in assay [13]; 3.24 µM in [14]. Also, the Ki in assay [15] was 1.35 µM. For the same compound, in [5], the negative logarithm of the Ki (pKi) is on record as greater than 5.
